US20230270773A1, “METHODS OF TREATING CANCER WITH A STING AGONIST” (Immunesensor Therapeutics, Inc., priority 2019, published 2023)
“Also recorded” adds a separate entry of the source.

Experiments:
[1] = Pharmacokinetics in mice, subcutaneous vs intravenous; conditions: mouse, in vivo
Experimental: (§1) The nonclinical pharmacokinetics (PK) of subcutaneously, intravenously, or intratumorally administered Compound A was investigated in mice at the doses of 0.1 and/or 0.5 mg/kg.

[2] = Pharmacokinetics after intratumoral administration in B16F10 tumor bearing mice; format: in vivo; conditions: female B16F10 tumor bearing mice
Experimental: as §1

[3] = Metabolic stability in in vitro systems; format: in vitro ADME, and monkey; conditions: human, rat, mouse, dog, monkey
[4] = Toxicological studies in the rat; format: in vivo
From the text: The toxicological evaluations of Compound A included studies in the rat and cynomolgus monkey (non-human primate [NHP]) and should be relevant to assessing potential human risk, as the STING pathway, the target of Compound A, is conserved across species.
The non-good laboratory practice (GLP) studies in the rat and NHP covered a broad range of doses and regimens. The objective of these studies was to evaluate the effects of Compound A following multiple ascending doses, single doses, and multiple doses.

[5] = Compound A levels in plasma after dosing of mice; format: in vivo, C57BL/6 mice
Experimental: (§2) The pharmacokinetic/pharmacodynamic properties of Compound A were evaluated in C57BL/6 mice following dosing by subcutaneous, intramuscular, or intravenous routes of administration. Blood was collected post-dosing for the measurement of Compound A and cytokine levels in plasma.

IFNβ and other cytokines = test: Cytokine production induced in mice; format: in vivo, C57BL/6 mice
Experimental: as §2

B16F10 melanoma = B16F10 melanoma syngeneic tumor model; format: in vivo, C57BL/6 mice
Experimental: To assess therapeutic activity of Compound A, C57BL/6 immune competent mice received subcutaneous implants of B16F10 melanoma cells on the right flank. Five days later, when tumor volumes were between 50 and 100 mm^3, the mice were intratumorally dosed with 0.1, 0.3, or 1.0 µg (equivalent to 0.005, 0.015, or 0.05 mg/kg) of Compound A alone, or in combination with 200 µg of PD-L1 antibody (clone 10F.9G2 available from Bio-X-Cell (catalog # BE0101)). Dosing was repeated every 3-4 days for 4 total doses. […] Once again, the effect was enhanced when Compound A was administered together with the PD-L1 antibody.

AG104 (fibrosarcoma) = test: AG104 syngeneic tumor model, intratumoral; format: in vivo, mouse
Experimental: Note that several of these tumors such as B16F10, 4T1, LL2 and AG104 are known to be refractory to antibodies against PD-1, PD-L1, or CTLA-4. In the B16F10 tumor model, twice weekly injection of Compound A for two weeks was efficacious in a dose-dependent manner in the range from 0.1 µg to 10 µg (0.005-0.5 mg/kg).

B16 melanoma = test: Abscopal effect, B16 melanoma bilateral tumor model; format: in vivo, mice; conditions: intratumoral into primary tumor, 0.15 and 0.5 mg/kg
Experimental: An abscopal effect is an immune-mediated phenomenon wherein direct treatment of a primary tumor can lead to a response in a distant tumor. The potential abscopal effect of Compound A was evaluated in B16 melanoma and AG104A fibrosarcoma tumor models evaluating mice bearing tumors on both right flank (primary tumor) and left flank (secondary tumor). In both models, Compound A was administered intratumorally into the primary tumor on days 5, 8, 11 and 15 after tumor inoculation. The secondary tumor was not treated.

[6] = tested on: B16 melanoma lung metastasis; test: B16 melanoma lung metastasis model; format: in vivo, mouse; conditions: intratumoral days 5, 8, 11; PD-L1 antibody 200 µg
Experimental: A B16 melanoma lung metastasis model was used to evaluate the effect of Compound A on tumor metastasis. Compound A was administered intratumorally on days 5, 8, and 11 after tumor inoculation alone or in combination with a PD-L1 antibody (200 µg of the antibody used in Example 6).

[7] = Cynomolgus monkey toxicity and toxicokinetics, subcutaneous (Phases I-III, priming dose); format: in vivo, cynomolgus monkeys
Experimental: Male and female cynomolgus monkeys were assigned to groups and doses of Compound A were administered. Animals were dosed via subcutaneous injection at a volume of 2 mL/kg. The vehicle control article/diluent was phosphate-buffered saline (PBS).

[8] = tested on: IFNα, IL-6, TNFα and other cytokines; test: Plasma cytokine levels in cynomolgus monkeys; format: in vivo; conditions: for plasma IFNα levels: male and female
[9] = 1 mg/kg/day, 1.5, 3 and 6 hours postdose

Nc1nc2c(ncn2[C@@H]2O[C@@H]3COP(=O)(O)OC4C(O)[C@H](n5cnc6c(N)ncnc65)O[C@@H]4COP(=O)(O)OC2C3OCC(F)(F)F)c(=O)[nH]1 (stereo partly shown) [Compound A]
bioavailability ([1]; sc, subcutaneous 0.5 mg/kg, male mice, subcutaneous AUC0-t vs intravenous AUC0-t, read-out: bioavailability (F)): 121% | clearance ([1]; mice, systemic compartment, read-out: clearance (CL) (converted)): 16.8 mL/min/kg | half-life ([1]; mice, read-out: t½): ~15 min | Vd ([1]; mice, read-out: volume of distribution (Vss)): 0.255 L/kg | Frel in plasma ([2]; intratumoral 0.1 mg/kg): 105% | Frel in plasma ([2]; intratumoral 0.5 mg/kg): 112% | half-life [3]: > 120 min | mortality ([4]; 3.0 mg/kg dose level): Mortality was also seen | mortality ([4]; GLP rat study, high doses group 10 and 30 mg/kg): Mortality was seen | moribundity and death ([4]; mid and high dose levels, rat study): Moribundity and death was seen | toxicokinetic findings ([4]; rat and NHP toxicology studies, multiple dose): no sex related differences, dose proportionality, and no accumulation | cause of deaths ([4]; rat, highest dose levels): pulmonary edema | concentration at 15 minutes ([5]; C57BL/6, mouse, plasma, 15 minutes after injection, subcutaneous, intramuscular or intravenous, read-out: Compound A level in plasma): 5 to 15 µM | Compound A in circulation ([5]; at 15 minutes, subcutaneous or intratumoral): detectable | Levels of Compound A ([5]; by 1 hour, subcutaneous, intratumoral or intravenous): below the limit of quantitation (BLOQ) | Compound A level in plasma ([5]; one hour after administration): below the limit of detection | Cmax, comparison between administration routes ([5]; subcutaneous, intramuscular, intravenous): not significantly different between administration routes | cytokine induction (IFNβ and other cytokines; 0.50 mg/kg): very low levels of cytokines | IFNβ in blood (IFNβ and other cytokines; 3 hours post dosing): High levels of IFNβ | IFNβ levels in blood (IFNβ and other cytokines; 12 hours post dosing): near the BLOQ | cytokine induction (IFNβ and other cytokines; dose levels that showed significant antitumor efficacy): only induced low levels of cytokine | time at which cytokine production was seen (IFNβ and other cytokines; following administration): 3 to 6 h | time to decrease of cytokines to BLOQ (IFNβ and other cytokines; following administration): ≤ 12 h | induction of IFNβ and other cytokines (IFNβ and other cytokines; subcutaneous 0, 0.15, 0.50, 1.50, 5, 15, 50 mg/kg, 3 and 6 hours post injection): dose-dependent induction of IFNβ | efficacious dose range (dose-dependent) (B16F10 melanoma): 0.1 to 10 µg | tumor growth and survival (B16F10 melanoma; 0.005 mg/kg): sufficient to inhibit tumor growth and prolong survival | tumor volume (B16F10 melanoma; Compound A 0.1, 0.3 or 1.0 µg intratumoral, PD-L1 antibody 200 µg, FIG. 3 Panels A-C): significantly reduced tumor volume at all dose levels | survival time (B16F10 melanoma; Compound A 0.1, 0.3 or 1.0 µg intratumoral, PD-L1 antibody 200 µg, FIG. 3 Panels E-G): significantly increased the survival time | tumor growth inhibition (B16F10 melanoma; intratumoral): highly effective in inhibiting tumor growth | tumor growth and survival (B16F10 melanoma; intratumoral, compared to controls): dose-dependent suppression of tumor growth and prolonged survival | lowest dose with decreased tumor growth and prolonged survival (B16F10 melanoma; intratumoral, every 3-4 days, 4 doses (0.1 µg/mice)): 0.005 mg/kg | anti-tumor efficacy (B16F10 melanoma; subcutaneous): also effective | tumor growth inhibition (AG104 (fibrosarcoma)): highly effective in inhibiting tumor growth | survival (B16 melanoma): survival was significantly prolonged | tumor growth/volume, primary and distant tumors (B16 melanoma; days 5, 8, 11, 15): tumor growth was suppressed in both primary and distant tumors; also recorded: significantly decreased | number of metastases in the lung [6]: dramatically reduced | primary tumor volume [6]: significant reduction in tumor volume | morbidity ([7]; 10 mg/kg/dose, Phase I): Morbidity was observed within 1 day | exposure (mean Cmax, AUC0-2, AUC0-8, AUC0-24) vs dose ([7]; 0.3 to 3 mg/kg/day, Day 1 of Phase II): generally dose-proportional | compound-related findings ([7]; 0.6 or 1.0 mg/kg/day): limited to a transient body temperature increase and mild to moderate clinical and anatomic pathology findings | tolerability ([7]; 3 weekly doses of 0.6 mg/kg without a priming dose): tolerated | tolerability ([7]; 3 weekly doses of 1.0 mg/kg/day preceded by a priming dose of 0.1 mg/kg): tolerated | tolerated dose on escalation ([7]; Phase I, subcutaneous dose escalation): up to 3.0 mg/kg/dose | tolerability ([7]; Phase II, 3 mg/kg in naïve animals): not tolerated and led to clinical observations of morbidity or death within 1 day of dosing | tolerability ([7]; Phase II, 3 weekly administrations of 0.3 mg/kg): tolerated | survival of animals ([7]; Phase III, three weekly doses of 0.6 or 1.0 mg/kg/day): survived until scheduled sacrifice | sex differences in mean Cmax, AUC0-2, AUC0-8, AUC0-24 ([7]; monkeys): less than 2 fold | accumulation ([7]; multiple doses of 0.3 mg/kg/day): No accumulation | dose not tolerated (acute morbidity and/or death) ([7]; naïve animals): ≥ 3.0 mg/kg | cause of acute morbidity and/or death ([7]; ≥ 3.0 mg/kg, naïve animals): pulmonary edema | plasma IL-6 levels ([8]; 0.1 mg/kg/day, 3 and 6 hours postdose): Increased plasma levels of IL-6 | IP-10 ([8]; 0.1 mg/kg/day, 3 hours post dosing): Slight elevation of IP-10 | TNFα levels ([8]; 0.1 mg/kg/day, 6 hours postdose in male, 3 and 6 hours in female): Elevated levels of TNFα | TNFα levels ([8]; 0.1 mg/kg/day, 24 hours post dosing): returned to non-detectable level | IL-6 levels ([8]; 0.1 mg/kg/day, 24 hours postdose): returned to a non-detectable level | plasma IFNα levels ([8]; 0.1 mg/kg/day): did not cause significant increase | plasma IL-6 levels ([8]; 0.6 mg/kg/day, 3 and 6 hours postdose): Increased plasma levels of IL-6 | TNFα levels ([8]; 0.6 mg/kg/day, 6 hours postdose in male, 1.5, 3, 6 hours in female): Elevated levels of TNFα | plasma IFNα levels ([8]; 0.6 mg/kg/day): did not cause significant increase | IP-10 ([8]; 0.6 mg/kg/day, throughout the time course): No significant elevation of IP-10 | IP-10 level [8, 9]: no increased IP-10 level | TNFα levels [8, 9]: Elevated TNFα levels | IFNα levels ([8]; 1 mg/kg/day, 1.5 and 3 hours postdose): did not cause significant change | IL-6 levels ([8]; 1 mg/kg/day, 3 and 6 hours postdose): Marked increase in IL-6 levels | IFNα levels ([8]; 1 mg/kg/day, 6 hours postdose): elevated levels | IFNα levels ([8]; 3 mg/kg and 10 mg/kg, 12 hours after dosing): decreased 12 hours after dosing, but did not return to pre-dose levels | IFNα levels ([8]; 10 mg/kg group): Higher levels of IFNα | IL-12, G-CSF, and IFNγ levels ([8]; Phase II): sporadic increases | changes in MCP-1 and IP-10 levels ([8]; Phase II): suggestive of an inflammatory response with resolution by 24 hours postdose | plasma IL-1ra, IL-6, and IFNα cytokine levels ([8]; Phase II, 3 mg/kg, 3 and 6 hours): dose-dependent increases
